Patent US6762198B2, “Dihetero-substituted metalloprotease inhibitors” (The Procter & Gamble Company, priority 1999, dated 2004)

Legend:
[1] = test system: human subject suffering from rheumatoid arthritis; test: Example A: oral tablets in a human subject with rheumatoid arthritis; type: in vivo; conditions: human 60 kg, three tablets (15 mg compound each) per day orally for 2 years
Protocol: A tablet composition for oral administration, according to the present invention, is made comprising:
A human subject weighing 60 kg (132 lbs), suffering from rheumatoid arthritis, is treated by a method of this invention. Specifically, for 2 years, a regimen of three tablets per day is administered orally to said subject.

[2] = test system: human subject suffering from osteoarthritis; test: Example B: oral capsule in a human subject with osteoarthritis; type: in vivo; conditions: human 90 kg, capsule containing 70 mg daily for 5 years
Protocol: A capsule for oral administration, according to the present invention, is made comprising:
A human subject weighing 90 kg (198 lbs.), suffering from osteoarthritis, is treated by a method of this invention. Specifically, for 5 years, a capsule containing 70 mg of the compound of Example 3 is administered daily to said subject.

[3] = test system: patient having deep corneal abrasion; test: Example C: saline-based eye drop in a patient with deep corneal abrasion; type: in vivo, human; conditions: 5% w/w saline-based drop to each eye twice a day
From the text: A saline-based composition for local administration, according to the present invention, is made comprising:
A patient having deep corneal abrasion applies the drop to each eye twice a day.

[4] = test system: patient suffering from chemical bums; test: Example D: topical composition in a patient with chemical burns; type: in vivo, human; conditions: 0.20% w/v topical composition at each dressing change (b.i.d.)
From the text: A topical composition for local administration, according to the present invention, is made comprising:
A patient suffering from chemical bums applies the composition at each dressing change (b.i.d.).

[5] = test system: human subject with a premetastatic tumor; test: Example G: parenteral suspension in a human subject with a premetastatic tumor; type: in vivo; conditions: about 2.0 mL of 100 mg/mL suspension injected beside the tumor twice daily, after 30 days
Protocol: A composition for parenteral administration is made comprising:
The above ingredients are mixed, forming a suspension. Approximately 2.0 mL of the suspension is administered, via injection, to a human subject with a premetastatic tumor. The injection site juxtaposes the tumor. This dosage is repeated twice daily, for approximately 30 days.

asthma sufferer = test: Example E: inhalation aerosol in an asthma sufferer; type: in vivo, human; conditions: 0.01 mL of 5.0% w/v inhalation aerosol sprayed into the mouth while inhaling

In the case of `COc1ccc(-c2ccc(S(=O)(=O)NC(CC(O)CSc3nccs3)C(=O)O)cc2)cc1` (stereo not drawn) [Example 1, 2-[(4′-Methoxy[1,1′-biphenyl]-4-yl)sulfonyl]amino-4-hydroxy-5-[(2-thiazolyl)thio]-pentanoic Acid], the “inflammation, mobility and pain at the end of the treatment period” value [1] is reported as “reduced inflammation, and improved mobility without concomitant pain”.

For `O=C(O)C(CC(O)CSc1nccs1)NS(=O)(=O)c1ccc(-c2ccc(Oc3ccccc3)cc2)cc1` (stereo not drawn) [Example 3, 2-[(4′-Phenoxy[1,1′-biphenyl]-4-yl)sulfonyl]amino-4-hydroxy-5-[(2-thiazolyl)thio]pentanoic Acid], the “advancement of erosion/fibrillation of the articular cartilage (x-ray, arthroscopy and/or MRI)” value [2] was “no further advancement of erosion/fibrillation of the articular cartilage”.

In the case of `Cc1ccc(C#Cc2ccc(S(=O)(=O)NC(CC(O)CSc3nccs3)C(=O)O)cc2)cc1` (stereo not drawn) [Example 10, 2-[[4-[(4-Methylphenyl)ethynyl]phenyl]sulfonyl]amino-4-hydroxy-5-[(2-thiazolyl)thio]-pentanoic Acid], the corneal healing [3] is reported as “Healing is speeded, with no visual sequelae”.

For `COc1ccc(-c2ccc(S(=O)(=O)NC(CC(O)CNc3ccccc3)C(=O)O)cc2)cc1` (stereo not drawn) [Example 19, 2-[(4′-Methoxy[1,1′-biphenyl]-4-yl)sulfonyl]amino-4-hydroxy-5-(phenylamino)-pentanoic Acid], the scarring [4] was “Scarring is substantially diminished”.

`COc1ccc(-c2ccc(S(=O)(=O)NC(CC(O)CSc3ncc[nH]3)C(=O)O)cc2)cc1` (stereo not drawn) [Example 22, 2-[(4′-Methoxy[1,1′-biphenyl]-4-yl)sulfonyl]amino-4-hydroxy-5[(2-imidazolyl)thio]-pentanoic Acid] was tested, and the “symptoms of the disease” value [5] was “symptoms of the disease subside”.

In the case of `COc1ccc(-c2ccc(S(=O)(=O)NC(CC(O)CSc3n[nH]c(-c4ccccc4)n3)C(=O)O)cc2)cc1` (stereo not drawn) [Example 42, 2-[(4′-Methoxy[1,1′-biphenyl]-4-yl)sulfonyl]amino-4-hydroxy-5-[(5-phenyl-1H-1,2,4-triazol-3-yl)thio]-pentanoic Acid], the asthma symptoms (asthma sufferer) is reported as “Asthma symptoms are diminished”.
